How the values were obtained:
CYP2C9 = molecular target: T1, CYP2C9 (Homo sapiens, UniProt P11712); test: Cocktail assay for CYPs in human liver microsomes, diclofenac 4′-hydroxylation (2C9); format: biochemical; conditions: 5 μM diclofenac, 10 min at 37° C.
T1 construct: 0.1 mg/mL protein human liver microsomes (BD Gentest); tissue BD Gentest; host or cells: human liver microsomes
Description: (§1) This assay was performed in a standard 96-well plate design. IC50 values were calculated from the percent inhibition observed for each test compound at 6 concentrations (for example, 0.0032, 0.016, 0.08, 0.4, 2 and 10 μM). The incubation substrate mix contains 10 μM phenacetin (1A2), 5 μM diclofenac (2C9), 30 μM mephenytoin (2C19), 5 μM dextromethorphan (2D6) and 2 μM midazolam (3A4), 0.1 mg/mL protein human liver microsomes (BD Gentest), 1 mM NAPDH, 3.3 mM MgCl2 and 100 mM potassium phosphate buffer (pH 7.4). The production of the metabolite of each probe substrate was determined after incubation for 10 min at 37° C. Quantitation of the metabolite peak area ratio against an internal standard (tolbutamide) was determined by LC/MS/MS analysis following acetonitrile treatment of the incubations.
(§2) Samples were analyzed in the MRM mode with a SCIEX API-4000 mass spectrometer (Applied Biosystems, Foster City, Calif.), with a Shimadzu LC-20 AD pump (Shimadzu corporation, Kyoto, JP) and a CTC PAL autosampler (Agilent Technologies, Switzerland). A Phenomenex, Luna, 5 μm, 100A, 2.00×30 mm HPLC column was used for the separation. The mobile phases were: (A) 0.1% formic acid in water and (B) 0.1% formic acid in acetonitrile. The binary gradient was as follows. AutoSampler: CTC PAL
(§3) The peak area ratio of the analyte to the internal standard was used to quantify the metabolite. The values of peak area ratios in the presence of test compound were compared to those of maximum or minimum controls and were expressed as % inhibition by interpolating between the maximum and minimum peak area ratios. Incubations with no inhibitor were defined as the maxima. The following equation was used to calculate the % inhibition: [1−[(X−Low control)/(High control−Low control)]]*100 For the IC50 calculation, SigmaPlot was used to plot the mean % inhibition versus the test compound concentrations and for non-linear regression analysis of the data. Depending on the range of data points defining the inhibition curve, the data may have been fit to the 4-parameter logistic equation.

CYP3A4 = molecular target: T2, CYP3A4 (Homo sapiens, UniProt P08684); test: Cocktail assay for CYPs in human liver microsomes, midazolam 1′-hydroxylation (3A4); format: biochemical; conditions: 2 μM midazolam, 10 min at 37° C.
T2 construct: 0.1 mg/mL protein human liver microsomes (BD Gentest); tissue BD Gentest; host or cells: human liver microsomes
Description: as §1, §2, §3

CYP2D6 = molecular target: T3, CYP2D6 (Homo sapiens, UniProt P10635); test: Cocktail assay for CYPs in human liver microsomes, dextromethorphan O-demethylation (2D6); format: biochemical; conditions: 5 μM dextromethorphan, 10 min at 37° C.
T3 construct: 0.1 mg/mL protein human liver microsomes (BD Gentest); tissue BD Gentest; host or cells: human liver microsomes
Description: as §1, §2, §3

human CYP11B2 = molecular target: T4, human CYP11B2 (Homo sapiens, UniProt P19099); test: IC50 vs CYP11B2 by measurement of aldosterone synthesis in V79 cells; format: cell-based; conditions: V79 cells expressing human CYP11B2, 750 nM DOC, aldosterone HTRF
T4 construct: expressed in transfected cells
T4 sequence (P19099 25-503): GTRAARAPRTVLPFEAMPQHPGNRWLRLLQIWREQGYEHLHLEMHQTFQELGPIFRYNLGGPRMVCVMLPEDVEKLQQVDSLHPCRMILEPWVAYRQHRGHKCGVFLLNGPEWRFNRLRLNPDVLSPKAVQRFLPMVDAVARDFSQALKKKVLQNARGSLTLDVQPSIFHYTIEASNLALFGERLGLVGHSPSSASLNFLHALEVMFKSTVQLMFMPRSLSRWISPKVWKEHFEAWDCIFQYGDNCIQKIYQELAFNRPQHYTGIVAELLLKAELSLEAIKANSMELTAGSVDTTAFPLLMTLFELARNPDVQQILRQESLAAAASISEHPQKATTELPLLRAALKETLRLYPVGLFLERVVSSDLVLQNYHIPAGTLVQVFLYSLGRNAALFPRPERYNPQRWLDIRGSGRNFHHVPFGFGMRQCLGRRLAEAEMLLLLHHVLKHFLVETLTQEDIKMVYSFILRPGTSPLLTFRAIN
Description: (§4) This assay was performed in a standard 384-well plate design using cultured V79 cells stably expressing human CYP11B1 or human CYP11B2. Test compounds at 10 concentrations (for example, 10000, 3333.3, 1111.1, 370.4, 123.5, 41.2, 13.7, 4.6, 1.5 and 0.5 nM) were added in 384-well plate after the cell-seeding procedure. The incubation substrate contains 1500 nM RSS for CYP11B1 assay/750 nM DOC for CYP11B2 assay. The Cortisol/Aldosterone production of cell culture supernatant was determined by Cortisol/Aldosterone HTRF kit after for about 15 hours incubation at RT (protect from light). IC50 (nM) values were calculated from the percent inhibition observed for each test compound at 10 concentrations.
(§5) The assay plate was read using Envision (Perkin Elmer, Waltham, Mass.) at 665 nm and 590 nm (using Filter Barcode of 217#, 205#; Mirror Barcode of 446#).
(§6) Data are analyzed using Assay Data Analyzer. All ratio data (665 nm/590 nm) are back calculated according to the standard curve, resulting in Cortisol/Aldosterone concentrations. IC50 (nM) values are reported as the Inflection Point (IP) of a four parameter fit of the titration data.
(§7) The following equation was used to calculate the % inhibition: % Activity=100×{1−(Sample_back calculated Cortisol/Aldosterone concentration−LC_back calculated Cortisol/Aldosterone concentration)/(HC_back calculated Cortisol/Aldosterone concentration−LC_back calculated Cortisol/Aldosterone concentration)} Curve Fitting: Four Parameter Logistic: […]

human CYP11B1 = molecular target: T5, human CYP11B1 (Homo sapiens, UniProt P15538); test: IC50 vs CYP11B1 by measurement of cortisol synthesis in V79 cells; format: cell-based; conditions: V79 cells expressing human CYP11B1, 1500 nM RSS, cortisol HTRF
T5 construct: expressed in transfected cells
T5 sequence (P15538 25-503): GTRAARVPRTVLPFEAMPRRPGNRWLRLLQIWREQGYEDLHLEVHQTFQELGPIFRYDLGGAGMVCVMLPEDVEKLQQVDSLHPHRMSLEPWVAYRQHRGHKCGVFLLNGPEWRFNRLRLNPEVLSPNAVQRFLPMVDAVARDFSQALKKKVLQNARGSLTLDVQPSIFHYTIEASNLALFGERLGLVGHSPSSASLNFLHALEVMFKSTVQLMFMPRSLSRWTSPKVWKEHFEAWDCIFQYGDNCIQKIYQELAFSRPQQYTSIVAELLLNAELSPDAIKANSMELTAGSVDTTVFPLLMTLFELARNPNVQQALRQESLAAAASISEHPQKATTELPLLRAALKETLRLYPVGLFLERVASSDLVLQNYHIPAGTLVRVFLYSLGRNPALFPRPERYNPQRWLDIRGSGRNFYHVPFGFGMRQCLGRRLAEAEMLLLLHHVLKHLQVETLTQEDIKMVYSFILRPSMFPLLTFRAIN
Description: as §4, §5, §6, §7

CYP2C19 = molecular target: T6, CYP2C19 (Homo sapiens, UniProt P33261); test: Cocktail assay for CYPs in human liver microsomes, mephenytoin 4′-hydroxylation (2C19); format: biochemical; conditions: 30 μM mephenytoin, 10 min at 37° C.
T6 construct: 0.1 mg/mL protein human liver microsomes (BD Gentest); tissue BD Gentest; host or cells: human liver microsomes
Description: as §1, §2, §3

CYP1A2 = molecular target: T7, CYP1A2 (Homo sapiens, UniProt P05177); test: Cocktail assay for CYPs in human liver microsomes, phenacetin O-deethylation (1A2); format: biochemical; conditions: 10 μM phenacetin, 10 min at 37° C.
T7 construct: 0.1 mg/mL protein human liver microsomes (BD Gentest); tissue BD Gentest; host or cells: human liver microsomes
T7 sequence (P05177 1-516): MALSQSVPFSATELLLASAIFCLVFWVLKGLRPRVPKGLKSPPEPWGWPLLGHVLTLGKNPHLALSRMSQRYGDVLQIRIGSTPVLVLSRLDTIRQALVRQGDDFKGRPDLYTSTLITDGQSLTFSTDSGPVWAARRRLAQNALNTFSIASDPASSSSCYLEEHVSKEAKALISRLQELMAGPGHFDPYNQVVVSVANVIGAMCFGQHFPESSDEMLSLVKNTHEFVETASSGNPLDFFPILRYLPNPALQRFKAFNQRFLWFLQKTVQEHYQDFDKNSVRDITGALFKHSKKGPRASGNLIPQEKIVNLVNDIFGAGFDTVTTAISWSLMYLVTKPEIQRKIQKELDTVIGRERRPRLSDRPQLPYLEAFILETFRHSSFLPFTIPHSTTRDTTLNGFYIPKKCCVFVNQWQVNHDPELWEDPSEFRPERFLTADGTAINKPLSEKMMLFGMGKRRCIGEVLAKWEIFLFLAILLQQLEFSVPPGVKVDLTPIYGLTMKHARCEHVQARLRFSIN
Description: as §1, §2, §3

T3 sequence (P10635 whole entry): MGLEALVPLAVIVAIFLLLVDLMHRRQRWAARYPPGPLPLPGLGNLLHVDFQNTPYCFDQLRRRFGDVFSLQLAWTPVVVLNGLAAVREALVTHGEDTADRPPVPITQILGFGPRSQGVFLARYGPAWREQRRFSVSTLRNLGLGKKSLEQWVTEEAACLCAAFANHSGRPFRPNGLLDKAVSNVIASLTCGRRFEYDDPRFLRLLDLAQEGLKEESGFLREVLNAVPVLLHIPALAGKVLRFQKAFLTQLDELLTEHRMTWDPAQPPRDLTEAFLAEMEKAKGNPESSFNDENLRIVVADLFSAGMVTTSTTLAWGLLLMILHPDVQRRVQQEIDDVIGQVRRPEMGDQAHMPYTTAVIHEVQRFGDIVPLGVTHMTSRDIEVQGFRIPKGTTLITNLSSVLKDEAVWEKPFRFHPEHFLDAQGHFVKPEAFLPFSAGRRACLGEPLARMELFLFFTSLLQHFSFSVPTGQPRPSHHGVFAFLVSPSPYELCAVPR
T1 sequence (P11712 whole entry): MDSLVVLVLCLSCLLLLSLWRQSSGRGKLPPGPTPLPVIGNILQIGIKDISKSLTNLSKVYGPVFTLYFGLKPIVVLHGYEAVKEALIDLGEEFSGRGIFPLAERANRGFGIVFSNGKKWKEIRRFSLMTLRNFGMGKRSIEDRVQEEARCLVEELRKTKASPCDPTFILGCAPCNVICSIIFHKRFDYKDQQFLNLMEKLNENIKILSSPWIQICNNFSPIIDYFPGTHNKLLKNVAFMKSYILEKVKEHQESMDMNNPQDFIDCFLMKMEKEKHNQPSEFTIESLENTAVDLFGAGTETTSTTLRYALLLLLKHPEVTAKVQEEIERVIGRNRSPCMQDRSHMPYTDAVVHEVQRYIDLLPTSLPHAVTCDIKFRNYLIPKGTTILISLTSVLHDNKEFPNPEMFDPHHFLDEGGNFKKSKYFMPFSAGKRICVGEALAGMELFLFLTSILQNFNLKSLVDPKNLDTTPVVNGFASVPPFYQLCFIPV
T6 sequence (P33261 whole entry): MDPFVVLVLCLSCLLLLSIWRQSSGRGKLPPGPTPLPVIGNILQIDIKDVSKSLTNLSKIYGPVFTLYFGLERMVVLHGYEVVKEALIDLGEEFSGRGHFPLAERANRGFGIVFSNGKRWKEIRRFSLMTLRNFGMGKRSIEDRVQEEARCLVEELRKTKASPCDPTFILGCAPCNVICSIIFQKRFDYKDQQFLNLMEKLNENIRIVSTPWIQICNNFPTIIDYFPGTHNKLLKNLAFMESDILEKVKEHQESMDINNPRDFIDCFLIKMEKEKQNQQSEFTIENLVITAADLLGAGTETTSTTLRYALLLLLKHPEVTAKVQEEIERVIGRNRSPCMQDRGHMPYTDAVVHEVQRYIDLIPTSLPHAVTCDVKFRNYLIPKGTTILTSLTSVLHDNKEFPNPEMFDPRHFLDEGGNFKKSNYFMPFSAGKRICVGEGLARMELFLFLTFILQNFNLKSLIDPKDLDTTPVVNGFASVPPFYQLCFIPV
T2 sequence (P08684 whole entry): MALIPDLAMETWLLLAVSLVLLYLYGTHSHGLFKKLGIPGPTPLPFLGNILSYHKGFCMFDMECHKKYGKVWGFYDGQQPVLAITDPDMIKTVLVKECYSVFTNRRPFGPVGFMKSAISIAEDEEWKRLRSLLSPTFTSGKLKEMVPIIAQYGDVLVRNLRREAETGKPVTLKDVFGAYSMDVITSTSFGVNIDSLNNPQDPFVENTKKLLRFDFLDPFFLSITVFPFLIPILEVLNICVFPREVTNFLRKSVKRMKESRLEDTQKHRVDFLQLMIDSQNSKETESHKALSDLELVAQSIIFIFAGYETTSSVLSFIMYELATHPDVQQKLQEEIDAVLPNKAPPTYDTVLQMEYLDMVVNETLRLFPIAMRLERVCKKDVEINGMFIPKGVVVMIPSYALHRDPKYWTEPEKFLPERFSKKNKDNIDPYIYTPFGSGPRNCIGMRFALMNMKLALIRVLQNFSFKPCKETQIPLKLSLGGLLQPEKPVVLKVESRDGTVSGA

SMILES | IC50 (CYP2C9) [µM] | IC50 (CYP3A4) [µM] | IC50 (CYP2D6) [µM] | IC50 (human CYP11B2) [µM] | IC50 (human CYP11B1) [µM] | IC50 (CYP2C19) [µM] | IC50 (CYP1A2) [µM]
C[C@@H](c1ccccc1-c1ccc(F)cc1)n1cncc1C(=O)N1CCC(N2CC[C@H](O)[C@@H](F)C2)CC1 [Compound 13] | > 10 | 0.0053 | > 10 | > 50 | 22.8 | > 10 | > 10
C[C@@H](c1ccccc1-c1ccc(F)cc1)n1cncc1C(=O)N1CCC(N2CC[C@@H](O)[C@H](F)C2)CC1 [Compound 14] | > 10 | 0.0061 | > 10 | > 50 | 22 | > 10 | > 10
C[C@@H](c1ccccc1-c1ccc(F)cc1)n1cncc1C(=O)N1CCC(N2C[C@@H](O)[C@H](F)C2)CC1 [Compound 15] | > 10 | 0.0041 | > 10 | > 50 | 20.2 | > 10 | > 10
C[C@@H](c1ccccc1-c1ccc(F)cc1)n1cncc1C(=O)N1CCC(N2C[C@H](O)[C@@H](F)C2)CC1 [Compound 16] | > 10 | 0.0043 | > 10 | 24.3 | 10.2 | > 10 | > 10
C[C@@H]1CN(C2CCN(C(=O)c3cncn3[C@@H](C)c3ccccc3-c3ccc(F)cc3)CC2)CC[C@@H]1O [Compound 17] | > 10 | 0.0049 | 8.6 | 31.6 | 11.5 | > 10 | > 10
C[C@@H]1CN(C2CCN(C(=O)c3cncn3[C@@H](C)c3ccccc3-c3ccc(F)cc3)CC2)CC[C@H]1O [Compound 18] | > 10 | 0.0097 | > 10 | > 50 | > 50 | > 10 | > 10
C[C@@H](c1ccccc1-c1ccc(F)cc1)n1cncc1C(=O)N1CCC(N2CCC(F)C(O)C2)CC1 (stereo partly shown) [Compound 19] | > 10 | 0.0057 | > 10 | > 50 | 32.5 | > 10 | > 10
C[C@@H](c1ccccc1-c1ccc(F)cc1)n1cncc1C(=O)N1CCC(N2CCNC(=O)C2)CC1 [Compound 20] | > 10 | 0.0045 | > 10 | 31.2 | 16.8 | > 10 | > 10
C[C@@H](c1ccccc1-c1ccc(F)cc1)n1cncc1C(=O)N1CCC(N2CCNC(=O)CC2)CC1 [Compound 21] | > 10 | 0.0068 | > 10 | > 50 | > 50 | > 10 | > 10

The remaining lines, values ahead:

IC50 (CYP2C9) [µM] | IC50 (CYP3A4) [µM] | IC50 (CYP2D6) [µM] | IC50 (human CYP11B2) [µM] | IC50 (human CYP11B1) [µM] | IC50 (CYP2C19) [µM] | IC50 (CYP1A2) [µM] | SMILES
> 10 | 0.004 | 9.75 | > 50 | 21.4 | > 10 | > 10 | CO[C@H]1CN(C2CCN(C(=O)c3cncn3[C@@H](C)c3ccccc3-c3ccc(F)cc3)CC2)C[C@@H]1O [Compound 22]
> 10 | 0.0034 | 9.72 | > 50 | 26.3 | > 10 | > 10 | CO[C@@H]1CN(C2CCN(C(=O)c3cncn3[C@@H](C)c3ccccc3-c3ccc(F)cc3)CC2)C[C@H]1O [Compound 23]
> 10 | 0.0057 | > 10 | > 50 | > 50 | > 10 | > 10 | C[C@@H](c1ccccc1-c1ccc(F)cc1)n1cncc1C(=O)N1CCC(NC2COC[C@H]2O)CC1 (stereo partly shown) [Compound 24]
> 10 | 0.0092 | 5.85 | > 50 | > 50 | > 10 | > 10 | C[C@@H](c1ccccc1-c1ccc(F)cc1)n1cncc1C(=O)N1CCC(NC2CCC(O)CC2)CC1 (stereo partly shown) [Compound 25]
> 10 | 0.0064 | ≥ 10 | > 50 | 14.6 | 6.29 | > 10 | C[C@@H](c1ccccc1-c1ccc(F)cc1)n1cncc1C(=O)N1CCC(N2CCn3c(nnc3C(F)(F)F)C2)CC1 [Compound 26]
> 10 | 0.0058 | > 10 | 23.9 | 11.1 | > 10 | > 10 | C[C@@H](c1ccccc1-c1ccc(F)cc1)n1cncc1C(=O)N1CCC(N2CCn3ncnc3C2)CC1 [Compound 27]
> 10 | 0.0054 | > 10 | > 50 | 14.9 | > 10 | > 10 | C[C@@H](c1ccccc1-c1ccc(F)cc1)n1cncc1C(=O)N1CCC(N2CCc3nccnc3C2)CC1 [Compound 28]
